Key:
SK-OV-3 cells = assay: Growth inhibition of SK-OV-3 cells, MTT assay after 72 hr; assay type: cell-based, human; conditions: conjugates delivered in C-m-HDLs, SEQ ID NO: 35 peptide, solvent lyophilization, FIG. 12A
Experimental: In this Example, the mole portions of components in the C-m-HDLs prepared by solvent lyophilization were POPC: egg SM: peptide: conjugate 5.6:2.4:2:1. 20 mM stock solutions of POPC and of egg SM were prepared in tert-butyl alcohol: water (8:2 v/v). […] Conjugates 20 and 30 were separately dissolved in tert-butyl alcohol: water (95:5) to a final concentration of 10 mM.
For C-m-HDL preparation, 2.8 mL of 20 mM POPC, 1.2 mL of 20 mM egg SM, 2 mL of 10 mM peptide, 1 mL of 10 mM conjugate, and 0.3 mL acetic acid were combined in a 20 mL glass vial. The combined solution was frozen at ≥−70° C. for ≥1 hr. The frozen vial was placed in the chamber of a lyophilizer set at a shelf temperature of −20° C. A vacuum between 100 to 150 mTorr was applied for ≥20 hr. The shelf temperature was raised to −10° C. and the vacuum was continued for ≥15 hr. The shelf temperature was then raised to 20° C. and the vacuum continued for 24 hr. The dried cake was dissolved in PBS to obtain C-m-HDLs. The uniformity of the C-m-HDLs was evaluated by SEC (Acclaim™ SEC-1000, 300 mm×4.6 mm column, 0.3 mL/min PBS mobile phase, 210 nm and 280 nm UV detection) and by dynamic light scattering. The phospholipid content was established with a commercially available, enzyme-based, colorimetric assay kit. Peptide and conjugate content were established by HPLC.
Two C-m-HDLs were prepared as above, containing either Conjugate 20 or Conjugate 30 were then tested for their growth inhibition activity against SK-OV-3 cells (ATCC). SK-OV-3 cells were grown in McCoy's-5A media supplemented with 10% fetal bovine serum and maintained in a 37° C. incubator under a 5% CO2 atmosphere. To assess growth inhibition, the growth medium of cells grown in 96-well plates was supplemented with various concentrations of C-m-HDL (cmpd 20), C-m-HDL (compd 30) or paclitaxel from a DMSO stock solution. The 96-well plates were incubated for 72 hr. The relative amount of live cells in each of the wells after 72 hr was determined with the MTT assay. […]

[1] = test system: female Sprague-Dawley rats; assay: Adrenal gland functionality after dosing: plasma corticosterone after ACTH challenge; assay type: in vivo, rat; conditions: paclitaxel in Cremophor EL/ethanol, 4 mg/kg intraperitoneally Days 1, 4, 7; FIG. 10
Experimental: A paclitaxel stock solution was prepared by dissolving paclitaxel in 1:1 (v/v) Cremophor EL/ethanol (95%) to a final paclitaxel concentration of […] (C-E paclitaxel solution). Next, a paclitaxel solution suitable for dosing was prepared by combining one volume of the C-E paclitaxel solution with 3 volumes of 0.9 weight % NaCl. This solution is designated as “Control”.
C-m-HDL (cmpd 20) was prepared as per Example 12.
Eighteen (18) female Sprague-Dawley rats were randomly assigned to 3 groups of 6 animals each. All animals were lightly anesthetized using isoflurane and dosed intraperitoneally on Days 1, 4, and 7 with paclitaxel at 4 mg/kg in a dose volume of 1.5 mL/kg, or intravenously with C-m-HDL (cmpd 20) at 4 mg/kg or vehicle (saline) via the tail vein using a dose volume of 1.5 mL/kg. Group I received saline, Group 2 received paclitaxel, and Group 3 received C-m-HDL (cmpd 20). On Day 11, rats in each group were lightly anesthetized using isoflurane within their home cage to minimize potential stress responses. Blood (˜200 μL) was collected into K3EDTA tubes prior to ACTH challenge (baseline). Rats were then challenged with a single intraperitoneal injection of ACTH (ACTH 1-24, Sigma-Aldrich A0298-1922) in normal saline at […] in a dose volume of 2 mL/kg. […] Plasma corticosterone content was determined with a commercially available ELISA kit.

## CC(=O)O[C@H]1C(=O)[C@@]2(C)[C@H]([C@H](OC(=O)c3ccccc3)[C@]3(O)C[C@H](OC(=O)[C@H](OC(=O)Oc4cc(C)c5c(c4)CC[C@@](C)(CC/C=C(\C)CC/C=C(\C)CCC=C(C)C)O5)[C@@H](NC(=O)c4ccccc4)c4ccccc4)C(C)=C1C3(C)C)[C@]1(OC(C)=O)CO[C@@H]1C[C@@H]2O [Conjugate 20, paclitaxel-delta-tocotrienol conjugate]
SK-OV-3 cells
  SK-OV-3 growth inhibition activity, delta-tocotrienol versus delta-tocopherol anchor: equivalent results
SK-OV-3 cells; listed as paclitaxel-delta-tocotrienol
  SK-OV-3 growth inhibition activity, delta-tocotrienol versus delta-tocopherol anchor: essentially equivalent

## CC(=O)O[C@H]1C(=O)[C@@]2(C)[C@H]([C@H](OC(=O)c3ccccc3)[C@]3(O)C[C@H](OC(=O)[C@H](O)[C@@H](NC(=O)c4ccccc4)c4ccccc4)C(C)=C1C3(C)C)[C@]1(OC(C)=O)CO[C@@H]1C[C@@H]2O [paclitaxel]
[1]
  adrenal toxicity (plasma corticosterone after ACTH challenge): lack of adrenal toxicity

## Paclitaxel-δ-tocopherol conjugate with a cleavable carbonate bond [No. 82]
SK-OV-3 cells; listed as paclitaxel-delta-tocopherol
  SK-OV-3 growth inhibition activity, delta-tocotrienol versus delta-tocopherol anchor: essentially equivalent
SK-OV-3 cells; listed as δ-tocopherol-paclitaxel
  SK-OV-3 growth inhibition activity, delta-tocotrienol versus delta-tocopherol anchor: equivalent results
